# Experimental data reported in patent US20120202756A1, “USE OF PRODRUGS TO AVOID GI MEDIATED ADVERSE EVENTS” (priority 2009, published 2012).
# Values joined by “and” are separate entries in the source; they are usually repeats but may differ in a detail not shown here. Identical values can stand only once. Like-named read-outs stand apart in the source and are kept apart here.
# Legend:
# [1] = target: human acetylcholineesterase (Homo sapiens, UniProt P22303); test: Human acetylcholineesterase activity in vitro assay (CEREP); format: biochemical
# [2] = Bioavailability of donepezil from its prodrugs in the cynomolgus monkey; conditions: relative bioavailability of donepezil vs dosing donepezil itself, male monkeys
# Text: (§1) Subsequent pharmacokinetic analysis was then undertaken using Win NonLin to generate the relevant PK parameters including Cmax, Tmax and AUC and T1/2.
# [3] = Stability in USP simulated gastric juice; format: in vitro ADME; conditions: USP SGF pH 1.1, pepsin […], prodrug 20 μg/mL
# Text: To minimize the direct inhibitory action of this drug on gastric emptying/gut motility—and resultant nausea—the prodrug should not undergo premature chemical or enzymic cleavage back to the parent drug while within the gut lumen.
# [4] = Stability in simulated intestinal juice (FaSSIF); format: in vitro ADME; conditions: FaSSIF pH 6.5, pancreatin 1%, prodrug 20 μg/mL
# Procedure: (§2) To avoid direct interaction between the active drug and the gut microfloral population, the prodrug should not undergo premature chemical or enzymic cleavage back to the parent dug while within the gut lumen. To confirm this the prodrugs were incubated with USP SGF (simulated gastric fluid), FeSSIF (fed state simulated intestinal fluid) and FaSSIF (fasted state simulated intestinal fluid) and remaining prodrug and any generated active drug assayed by use of a qualified LC-MS/MS analytical method.
# (§3) Method—Prodrug (20 μg/mL) in the FaSSIF cocktail comprising sodium taurocholate 3 mM, lecithin 0.75 mM, NaOH 8.7 mM, NaH2PO4. H2O 28.7 mM, NaCl 106 mM, pancreatin 1% (overall pH 6.5) was incubated for 2 h at 37° C. After acidifying the incubation to stop any reaction the amount of prodrug remaining and drug generated were determined using a qualified LC-MS/MS method.
# (§4) To minimize the direct inhibitory action of this drug on gastric emptying/gut motility—and resultant nausea—the prodrug should not undergo premature chemical or enzymic cleavage back to the parent drug while within the gut lumen. To confirm this, the prodrugs were incubated with USP SGF (simulated gastric fluid), FeSSIF (fed state simulated intestinal fluid) and FaSSIF (fasted state simulated intestinal fluid) and remaining prodrug, and any generated active drug, assayed by use of a qualified LC-MS/MS analytical method.
# as §3, with “Prodrug” for “Method—Prodrug”
# as §2, with “gut,” for “gut microfloral population,”
# [5] = Stability in simulated intestinal juice (FeSSIF); format: in vitro ADME; conditions: FeSSIF pH 5.0, pancreatin 1%
# Procedure: as §2
# Pancreatin was again added at 1%.
# as §4
# as §2, with “gut,” for “gut microfloral population,”
# [6] = Bioavailability of donepezil from its prodrugs in the male beagle dog; conditions: relative bioavailability of donepezil vs dosing donepezil itself, male dogs
# Text: as §1
# [7] = test system: Fusobacterium necrophorum; test: MIC agar dilution; format: cell-based; conditions: clinical isolate
# Clostridium sporogenes = test: MIC agar dilution; format: cell-based; conditions: ATCC3584, ATCC 3584
# Prevotella denticola = test: MIC agar dilution; format: cell-based; conditions: clinical isolate
# Clostridium sordellii = test: MIC agar dilution; format: cell-based; conditions: Paraclostridium sordellii, NCTC13356; NCTC 13356
# Clostridium perfringens = test: microbe, parasite or virus in culture; format: cell-based
# Bifidobacterium dentium = test: MIC agar dilution; format: cell-based; conditions: NCTC11816
# Campylobacter jejuni = test: MIC agar dilution
# [8] = test system: Peptostreptococcus magnus; test: MIC agar dilution; format: cell-based; conditions: Finegoldia magna; clinical isolate
# Bacteroides fragilis = test: MIC agar dilution
# Veillonella spp. = test: MIC agar dilution; format: cell-based; conditions: clinical isolate
# [9] = test system: Peptostreptococcus micros; test: MIC agar dilution; format: cell-based; conditions: Parvimonas micra; clinical isolate
# [10] = test system: Porphyromonas assacharolyticus; test: MIC agar dilution; format: cell-based; conditions: clinical isolate
# Bifidobacterium longum = test: MIC agar dilution; format: cell-based; conditions: NCTC11818
# [11] = test system: Porphyromonas endodontalis; test: MIC agar dilution; format: cell-based; conditions: clinical isolate
# Campylobacter coli = test: MIC agar dilution
# Clostridium difficile = test: MIC agar dilution; format: cell-based; conditions: Clostridioides difficile
# [12] = test system: Peptostreptococcus anaerobius; test: MIC agar dilution; format: cell-based; conditions: NCTC11460
# Clostridium bifermentans = test: MIC agar dilution; format: cell-based; conditions: Paraclostridium bifermentans, ATCC638
# [13] = Bioavailability of metronidazole from its prodrugs in the rat; conditions: for T>50% Cmax: period plasma metronidazole at or above 50% of Cmax, oral 1 mg equivalents/kg
# Procedure: In order to confirm successful absorption and subsequent hydrolysis of these metronidazole prodrugs, a comparative bioavailability study was undertaken in the rat Methods—Three groups of five male Sprague Dawley rats were orally dosed with either metronidazole itself or its succinyl valine or glutaryl para-amino benzoic acid ester prodrugs. Serial tail vein blood samples were subsequently collected via an indwelling cannuala into EDTA tubes containing a stabilising cocktail (including 6 mg/mL NaF) to prevent post collection enzymic hydrolysis of the prodrug. Separated plasma samples were subjected to bioanalysis for both the prodrugs and metronidazole itself using a qualified LC/MS-MS bioanalytical method.
# Veillonella atypical = test: MIC agar dilution; format: cell-based; conditions: NCTC11830
# [14] = test system: Bacteroides thetaiotamicron; test: MIC agar dilution; format: cell-based
# Propionibacterium acnes = test: MIC agar dilution
# Helicobacter pylori = test: MIC agar dilution
# Prevotella bivia = test: MIC agar dilution; format: cell-based; conditions: ATCC29303, ATCC 29303
# Veillonella parvula = test: MIC agar dilution; format: cell-based; conditions: NCTC11810
# Clostridium novyi = test: MIC agar dilution; format: cell-based; conditions: ATCC19402
# Eggerthella lenta = test: MIC agar dilution; format: cell-based; conditions: ATCC43055, ATCC 43055
# [15] = test system: Bifidobacterium adolescentis; test: MIC agar dilution; format: cell-based; conditions: NCTC11814
# [16] = NCTC13366, NCTC 13366 - NAP1/027
# [17] = antibiotic-susceptible clinical isolate
# [18] = clinical isolate MIC clindamycin 0.5 mg/L
# [19] = clinical isolate (first listed, r83)
# [20] = clinical isolate (second listed, r85)
# human acetylcholineesterase, sequence (P22303 32-614): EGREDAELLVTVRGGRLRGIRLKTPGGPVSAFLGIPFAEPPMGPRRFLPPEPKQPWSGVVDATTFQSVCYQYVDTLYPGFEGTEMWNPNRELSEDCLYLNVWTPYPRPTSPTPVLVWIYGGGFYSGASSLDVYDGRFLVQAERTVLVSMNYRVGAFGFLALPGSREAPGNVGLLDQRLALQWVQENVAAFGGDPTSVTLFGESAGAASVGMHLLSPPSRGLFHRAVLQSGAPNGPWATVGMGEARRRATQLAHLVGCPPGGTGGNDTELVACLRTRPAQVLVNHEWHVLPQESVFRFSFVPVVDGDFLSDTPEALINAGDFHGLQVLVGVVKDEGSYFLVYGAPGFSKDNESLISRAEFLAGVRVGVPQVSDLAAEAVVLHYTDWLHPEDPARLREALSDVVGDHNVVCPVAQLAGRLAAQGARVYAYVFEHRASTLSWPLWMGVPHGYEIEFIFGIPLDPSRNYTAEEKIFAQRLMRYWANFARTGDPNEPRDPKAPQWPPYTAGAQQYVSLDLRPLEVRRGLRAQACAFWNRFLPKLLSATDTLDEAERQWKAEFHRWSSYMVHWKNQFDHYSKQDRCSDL
structure (smiles),measurement,setting,value
"COc1cc2c(cc1OC)C(OC(=O)CCCC(=O)O)=C(CC1CCN(Cc3ccccc3)CC1)C2 [Donepezil glutaryl enol ester, Donepezil-(Glutaryl) enol ester]",IC50,[1],830 nM
"COc1cc2c(cc1OC)C(OC(=O)CCCC(=O)N[C@H](C(N)=O)C(C)C)=C(CC1CCN(Cc3ccccc3)CC1)C2 [Donepezil glutaryl valinamide, donepezil[glutaryl-(S)-valinamide]enol ester]",Frel,[2]; individual animals,97% and 44% and 99% and 64% and 89%
same,Frel,[2]; mean,79%
same,"Simulated gastric juice (1 h, 37° C.) % active drug generated",[3],<2.0%
same,"Simulated intestinal juice (2 h, 37° C.) (FaSSIF) % active drug generated",[4],<2.0%
same,"Simulated intestinal juice (2 h, 37° C.) (FeSSIF) % active drug generated",[5],<2.0%
same,Frel,[6]; individual animals,85% and 25% and 62% and 44% and 28%
same,Frel,[6]; mean,49%
"Cc1ncc([N+](=O)[O-])n1CCOC(=O)CCC(=O)N[C@H](C(=O)O)C(C)C [Metronidazole succinyl valine ester, Metronidazole-[succinyl-(S)-valine]ester]",MIC,[7],32 µg/mL
same,MIC,Clostridium sporogenes,32 µg/mL
same,MIC,Prevotella denticola,> 64 µg/mL
same,MIC,Clostridium sordellii,> 64 µg/mL
same,MIC,Clostridium perfringens,> 64 µg/mL
same,MIC,Clostridium perfringens; ATCC13124,> 64 µg/mL
same,MIC,Bifidobacterium dentium,> 64 µg/mL
same,MIC,Campylobacter jejuni,> 64 µg/mL
same,MIC,Campylobacter jejuni; ATCC33560,> 64 µg/mL
same,MIC,[8],64 µg/mL
same,MIC,Bacteroides fragilis,> 64 µg/mL
same,MIC,Bacteroides fragilis; ATCC25285,> 64 µg/mL
same,MIC,Veillonella spp.,> 64 µg/mL
same,MIC,[9],64 µg/mL
same,MIC,[10],> 64 µg/mL
same,MIC,Bifidobacterium longum,> 64 µg/mL
same,MIC,[11],> 64 µg/mL
same,MIC,Campylobacter coli,> 64 µg/mL
same,MIC,Campylobacter coli; ATCC33559,> 64 µg/mL
same,MIC,"Clostridium difficile; ATCC700057, ATCC 700057",32 µg/mL
same,MIC,Clostridium difficile; [16],64 µg/mL
same,MIC,Clostridium difficile; [17],32 µg/mL
same,MIC,[12],32 µg/mL
same,MIC,Clostridium bifermentans,> 64 µg/mL
same,Tmax,"[13]; male, Sprague Dawley, rat, in vivo, po",2.0 h
same,MIC,Veillonella atypical,> 64 µg/mL
same,MIC,[14]; ATCC29741,> 64 µg/mL
same,MIC,[14]; NCTC10582,> 64 µg/mL
same,MIC,Propionibacterium acnes; Cutibacterium acnes,> 64 µg/mL
same,MIC,Propionibacterium acnes; [18],>64 µg/mL
same,MIC,Helicobacter pylori; [19],64 µg/mL
same,MIC,Helicobacter pylori; [20],64 µg/mL
same,MIC,Prevotella bivia,> 64 µg/mL
same,MIC,Veillonella parvula,> 64 µg/mL
same,MIC,Clostridium novyi,> 64 µg/mL
same,MIC,Eggerthella lenta,> 64 µg/mL
same,MIC,[15],> 64 µg/mL
"Cc1ncc([N+](=O)[O-])n1CCO [Metronidazole, metronidazole, reference compound]",MIC,[7],0.12 µg/mL
same,MIC,Clostridium sporogenes,0.06 µg/mL
same,MIC,Prevotella denticola,0.5 µg/mL
same,MIC,Clostridium sordellii,0.5 µg/mL
same,MIC,Clostridium perfringens,2 µg/mL
same,MIC,Clostridium perfringens; ATCC13124,1 µg/mL
same,MIC,Bifidobacterium dentium,16 µg/mL
same,MIC,Campylobacter jejuni,8 µg/mL
same,MIC,Campylobacter jejuni; ATCC33560,1 µg/mL
same,MIC,[8],0.25 µg/mL
same,MIC,Bacteroides fragilis,0.5 µg/mL
same,MIC,Bacteroides fragilis; ATCC25285,0.5 µg/mL
same,MIC,Veillonella spp.,2 µg/mL
same,MIC,[9],0.25 µg/mL
same,MIC,[10],0.5 µg/mL
same,MIC,Bifidobacterium longum,8 µg/mL
same,MIC,[11],1 µg/mL
same,MIC,Campylobacter coli,1 µg/mL
same,MIC,Campylobacter coli; ATCC33559,0.5 µg/mL
same,MIC,"Clostridium difficile; ATCC700057, ATCC 700057",0.12 µg/mL
same,MIC,Clostridium difficile; [16],0.12 µg/mL
same,MIC,Clostridium difficile; [17],0.06 µg/mL
same,MIC,[12],0.12 µg/mL
same,MIC,Clostridium bifermentans,0.25 µg/mL
same,time of peak plasma levels after dosing,"[13]; oral, male rats",≤ 15 min
same,T>50% Cmax,"[13]; male rats, individual animals",1.5 h and 1.75 h and 2.75 h and 3.0 h and 2.5 h
same,T>50% Cmax,"[13]; male rats, mean",2.3 ± 0.65 h and 2.3 h
same,MIC,Veillonella atypical,8 µg/mL
same,MIC,[14]; ATCC29741,1 µg/mL
same,MIC,[14]; NCTC10582,1 µg/mL
same,MIC,Propionibacterium acnes; Cutibacterium acnes,> 64 µg/mL
same,MIC,Propionibacterium acnes; [18],>64 µg/mL
same,MIC,Helicobacter pylori; [19],2 µg/mL
same,MIC,Helicobacter pylori; [20],2 µg/mL
same,MIC,Prevotella bivia,1 µg/mL
same,MIC,Veillonella parvula,4 µg/mL
same,MIC,Clostridium novyi,0.5 µg/mL
same,MIC,Eggerthella lenta,0.5 µg/mL
same,MIC,[15],32 µg/mL
